A value given as a limit tells only on which side of the number the result lay.

The target of the first experiment is T1, truncated His-MBP-Tev-KLHDC2 (residues 1-363) (Homo sapiens, UniProt Q9Y2U9).
T1 construct: truncated His -MBP-Tev-KLHDC2 (residues 1-363) purified from E. coli; made in house; host or cells: E. coli
T1 sequence (Q9Y2U9 1-363): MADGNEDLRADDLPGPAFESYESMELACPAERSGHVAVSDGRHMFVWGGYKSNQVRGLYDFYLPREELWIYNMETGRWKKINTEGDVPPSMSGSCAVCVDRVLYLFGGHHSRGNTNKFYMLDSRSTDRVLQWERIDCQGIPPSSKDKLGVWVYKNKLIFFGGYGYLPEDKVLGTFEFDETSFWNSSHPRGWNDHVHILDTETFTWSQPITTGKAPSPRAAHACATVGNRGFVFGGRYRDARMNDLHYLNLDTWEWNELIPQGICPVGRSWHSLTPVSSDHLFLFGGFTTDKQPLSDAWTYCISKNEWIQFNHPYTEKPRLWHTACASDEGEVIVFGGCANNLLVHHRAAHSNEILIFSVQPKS
The experiment is described as follows: KLHDC2 HTRF binding assay. Particulars: 1 nM KLHDC2 (residues 1-363), fluorescein-labeled diglycine peptide probe. Background: TR-FRET usually uses a lanthanide donor and a delayed reading to cut background.
Turning to `Cc1cccc(C)c1-c1ccc(=O)n(CC(=O)O)c1` [I-404], the half-maximal inhibitory concentration (IC50) is > 5 µM.

In the case of `O=C(O)Cn1cc(-c2ccccc2O)ccc1=O` [I-406], the IC50 is > 5 µM.

As to `Cc1cc(C)cc(-c2ccc(=O)n(CC(=O)O)c2)c1` [I-408], the IC50 was > 5 µM.

On to `O=C(O)Cn1cc(-c2cccc3ccccc23)ccc1=O` [I-409], for which the concentration for half-maximal inhibition (IC50) is > 5 µM.

Turning to `Cc1ccc(C)c(-c2ccc(=O)n(CC(=O)O)c2)c1` [I-419], the IC50 was > 5 µM.

In the case of `O=C(O)Cn1cc(-c2cccc(F)c2)ccc1=O` [I-420], the IC50 is > 5 µM.

Consider `Cc1cccc(-c2ccc(=O)n(CC(=O)O)c2)c1` [I-422], for which the IC50 is > 5 µM.

With `O=C(O)Cn1cc(-c2cccs2)ccc1=O` [I-424], the IC50 is > 5 µM.

Consider `O=C(O)Cc1ccccc1O` [I-425], for which the IC50 was > 5 µM.

For the compound `Cc1ccc2c(c1C)NC(C(=O)O)C1CC=CC21` (stereo not drawn) [I-426], the IC50 was > 5 µM.

In the case of `Nc1ccc(F)c2c(O)n[nH]c12` [I-427], the IC50 fell in the range of 0.5 to 5 µM.

Regarding `O=C(O)Cn1ccccc1=O` [I-428], the IC50 is > 5 µM.

Take `O=C(O)Cn1cc(C(F)(F)F)ccc1=O` [I-429]: the IC50 was > 5 µM.

`COc1cc(-c2ccc(F)c(CCCCCCCCCNC(=O)C[C@@H]3N=C(c4ccc(Cl)cc4)c4c(sc(C)c4C)-n4c(C)nnc43)c2)ccc1C(=O)Nc1ccc(=O)n(CC(=O)O)c1` [I-469]: the IC50 lay in the range of 0.5 to 5 µM.

`COc1cc(-c2ccc(CCCCCCCCCNC(=O)C[C@@H]3N=C(c4ccc(Cl)cc4)c4c(sc(C)c4C)-n4c(C)nnc43)cc2)ccc1C(=O)Nc1ccc(=O)n(CC(=O)O)c1` [I-470] showed an IC50 of 0.5 to 5 µM.

`Cc1sc2c(c1C)C(c1ccc(Cl)cc1)=N[C@@H](CC(=O)NCCCCCCc1ccc(C(=O)Nc3ccc(=O)n(CC(=O)O)c3)cc1-c1cccnc1)c1nnc(C)n1-2` [I-473] gave an IC50 of 0.05 to 0.5 µM.

Regarding `Cc1sc2c(c1C)C(c1ccc(Cl)cc1)=N[C@@H](CC(=O)NCCCCCCn1ccc3c(C(=O)Nc4ccc(=O)n(CC(=O)O)c4)cccc31)c1nnc(C)n1-2` [I-474], the IC50 is < 0.05 µM.

In turn, `Cc1sc2c(c1C)C(c1ccc(Cl)cc1)=N[C@@H](CC(=O)NCCCCCCc1ccncc1-c1cccc(C(=O)Nc3ccc(=O)n(CC(=O)O)c3)c1)c1nnc(C)n1-2` [I-475] gave an IC50 of 0.05 to 0.5 µM.

As for `Cc1sc2c(c1C)C(c1ccc(Cl)cc1)=N[C@@H](CC(=O)NCCCCCCc1cc(C(=O)Nc3ccc(=O)n(CC(=O)O)c3)cc(-c3cccnc3)c1)c1nnc(C)n1-2` [I-476], the IC50 was 0.05 to 0.5 µM.

Turning to `Cc1sc2c(c1C)C(c1ccc(Cl)cc1)=N[C@@H](CC(=O)NCCCCCCc1cncc(-c3cccc(C(=O)Nc4ccc(=O)n(CC(=O)O)c4)c3)c1)c1nnc(C)n1-2` [I-477], the concentration for half-maximal inhibition (IC50) was < 0.05 µM.

Another experiment has as its target T1, truncated His-MBP-Tev-KLHDC2 (residues 1-363). The experiment can be described thus: KLHDC2 FP competition binding assay. Conditions: 15 nM KLHDC2 (residues 1-363), 10 nM fluorescein-labeled diglycine peptide probe, read-out: KLHDC2 binding Human FP: average external IC50.
As to `Cc1cccc(C)c1-c1ccc(=O)n(CC(=O)O)c1` [I-404], the IC50 was > 5 µM.

With `O=C(O)Cn1cc(-c2ccccc2O)ccc1=O` [I-406], the IC50 was > 5 µM.

With `Cc1cc(C)cc(-c2ccc(=O)n(CC(=O)O)c2)c1` [I-408], the IC50 was > 5 µM.

Consider `O=C(O)Cn1cc(-c2cccc3ccccc23)ccc1=O` [I-409], for which the 50% inhibitory concentration (IC50) is > 5 µM.

For the compound `Cc1ccc(C)c(-c2ccc(=O)n(CC(=O)O)c2)c1` [I-419], the IC50 is > 5 µM.

With `O=C(O)Cn1cc(-c2cccc(F)c2)ccc1=O` [I-420], the IC50 was > 5 µM.

As for `Cc1cccc(-c2ccc(=O)n(CC(=O)O)c2)c1` [I-422], the IC50 was > 5 µM.

As for `O=C(O)Cn1cc(-c2cccs2)ccc1=O` [I-424], the IC50 is > 5 µM.

On to `O=C(O)Cc1ccccc1O` [I-425], for which the IC50 is > 5 µM.

For the compound `Cc1ccc2c(c1C)NC(C(=O)O)C1CC=CC21` (stereo not drawn) [I-426], the IC50 was > 5 µM.

For `Nc1ccc(F)c2c(O)n[nH]c12` [I-427], the IC50 is > 5 µM.

For the compound `O=C(O)Cn1ccccc1=O` [I-428], the IC50 is > 5 µM.

In the case of `O=C(O)Cn1cc(C(F)(F)F)ccc1=O` [I-429], the IC50 was > 5 µM.

`COc1cc(-c2ccc(F)c(CCCCCCCCCNC(=O)C[C@@H]3N=C(c4ccc(Cl)cc4)c4c(sc(C)c4C)-n4c(C)nnc43)c2)ccc1C(=O)Nc1ccc(=O)n(CC(=O)O)c1` [I-469]: the IC50 is 0.05 to 0.5 µM.

As to `COc1cc(-c2ccc(CCCCCCCCCNC(=O)C[C@@H]3N=C(c4ccc(Cl)cc4)c4c(sc(C)c4C)-n4c(C)nnc43)cc2)ccc1C(=O)Nc1ccc(=O)n(CC(=O)O)c1` [I-470], the IC50 is 0.05 to 0.5 µM.

On to `Cc1sc2c(c1C)C(c1ccc(Cl)cc1)=N[C@@H](CC(=O)NCCCCCCc1ccc(C(=O)Nc3ccc(=O)n(CC(=O)O)c3)cc1-c1cccnc1)c1nnc(C)n1-2` [I-473], for which the IC50 is < 0.05 µM.

As for `Cc1sc2c(c1C)C(c1ccc(Cl)cc1)=N[C@@H](CC(=O)NCCCCCCn1ccc3c(C(=O)Nc4ccc(=O)n(CC(=O)O)c4)cccc31)c1nnc(C)n1-2` [I-474], the IC50 is < 0.05 µM.

Consider `Cc1sc2c(c1C)C(c1ccc(Cl)cc1)=N[C@@H](CC(=O)NCCCCCCc1ccncc1-c1cccc(C(=O)Nc3ccc(=O)n(CC(=O)O)c3)c1)c1nnc(C)n1-2` [I-475], for which the IC50 was < 0.05 µM.

For the compound `Cc1sc2c(c1C)C(c1ccc(Cl)cc1)=N[C@@H](CC(=O)NCCCCCCc1cc(C(=O)Nc3ccc(=O)n(CC(=O)O)c3)cc(-c3cccnc3)c1)c1nnc(C)n1-2` [I-476], the IC50 is < 0.05 µM.

Turning to `Cc1sc2c(c1C)C(c1ccc(Cl)cc1)=N[C@@H](CC(=O)NCCCCCCc1cncc(-c3cccc(C(=O)Nc4ccc(=O)n(CC(=O)O)c4)c3)c1)c1nnc(C)n1-2` [I-477], the IC50 was < 0.05 µM.

The next experiment addresses T2, BRD4 (Homo sapiens, UniProt O60885).
T2 construct: endogenous in cells; host or cells: HEK293
The experiment is described as follows: BRD4 degradation in HEK293 cells (Western blot). The format is cell-based. Particulars: lysed after 24, Western blot, FIG. 4. How it is done: On day 1, 6.25×10^5 HEK293 cells were seeded per well into a 12-well plate. After 24, cells were lysed in wells with 80 ul of pre-chilled RIPA Lysis buffer (Beyotime, P0013B) with protease/phosphatase inhibitor (Roche 4693116001/Roche 04906837001) for 20 min at 4 degree on a rocker, then spun down at 20,000g at 4 degree for 10 min and the BCA assay was run. 39 ul of supernatant was transferred to a fresh EP tube containing 15 ul of 4X LDS loading buffer and 6 ul 10X reducing agent to make the loading samples. The samples were then heated to 70° C. for 10 minutes, cooled to RT, and stored under−20° C. Samples were loaded with equal amount of protein onto 4-12% Bis -Tris SDS-PAGE 26 wells gel (Novex, WG1403BOX) and the gel was run for 1.5 hours at 120 V. Electrotransfer to NC membrane was completed using wet-transfer method with 250 mA for 80 min and the membrane was blocked in 5% BSA (Solarbio,A8020) with 1X TBST for 1 hour. The samples were incubated with primary antibody prepared in blocking buffer (LI-COR, 927-60001) at 4° C. overnight and the membrane was washed three times with 1X TBST, 5 minutes each. Incubate with secondary antibody for 1 hour at RT (anti-rabbit IgG (Licor,926-32211) 1:5000; anti-mouse IgG (LI-COR, 926-68070)1:5000). The membrance was then washed three times with 1X TBST, 5 minutes each and once with RO H2O, then read on LiCOR.
(Immunoblotting shows a protein as a band on a membrane.)
Regarding `Cc1sc2c(c1C)C(c1ccc(Cl)cc1)=N[C@@H](CC(=O)NCCCCCCCCCCCCCCN(C(=O)C1CCCN(c3cncc4ccccc34)C1)c1ccc(=O)n(CC(=O)O)c1)c1nnc(C)n1-2` (stereo partly drawn) [I-481], the “KLHDC2-dependent BRD4 degradation” value was “KLHDC2-dependent BRD4 degradation”.

The same experiment, now with this note: lysed after 24, Western blot, FIGS. 2-3.
For `Cc1sc2c(c1C)C(c1ccc(Cl)cc1)=N[C@@H](CC(=O)NCCCCCCCCCCCCCCN(C(=O)C1CCCN(c3cncc4ccccc34)C1)c1ccc(=O)n(CC(=O)O)c1)c1nnc(C)n1-2` (stereo partly drawn) [I-481], the BRD4 degradation entry is reported as “BRD4 degradation”.

The term IC50 denotes the concentration that gives 50% inhibition.

The values above are taken from patent US20250214969A1, “PROTEIN DEGRADERS AND USES THEREOF” (Kymera Therapeutics, Inc., priority 2022, published 2025).
